# In patent publication US9937145B2, “Sulfamate derivative compound for use in preventing or treating epilepsy” (Bio-Pharm Solutions Co., Ltd., priority 2013, dated 2018):
# Test system: male ICR mice
# Assay: MES test (anti-epilepsy activity), mice, oral (mMES po)
# Assay type: in vivo
# Conditions: Mus musculus, injection amount 9 mg/kg, 3 mice, read-out: mMES(po) Protection %
# Method: Biological Experimental Example. 1: Measurement of Anti-Epilepsy Activity (MES-Test)
# In the MES test (Ref., G. Villetti et al. Neuropharmacology 40(2001) 866-878), an electrical stimulus (mice: 50 mA, 60 Hz, 0.2 sec, and rats: 150 mA, 60 Hz, 0.2 sec in the test animal) supplied by an 11 A Shocker (IITC Life Science Company) was delivered through corneal electrodes. All mice or rats assigned to any electroshock at peak time were treated with each test compound sample which was dissolved in 20% tween 80 prepared by saline solvent applied orally before the test. […] Three doses of the test sample were administered orally to 9-18 animals (3-6 mice per dose) for evaluating the respective doses at which 50% of the animals were protected from seizure (ED50). The ED50 value (median effective close) was calculated by Litchfield and Wicoxon log-probit method which is a dose-response relationship. Experimental animals, male ICR mice and male SD rats, were purchased from OrientBio, Samtako, or Nara Biotech, Korea, and housed in cages (4-5 mice or 3 rats per cage) for 4-5 days. The range of mice body weight was between 19 and 25 grams and range of rats body weight was between 100 and 130 grams.
# The obtained results are shown as mean±sem. The difference between the groups was statistically analyzed by ANOVA, and then further examined by Dunnett's test or Bonferroni test. If p is less than 0.05, it was determined that the difference between the groups had statistical significance.
# The results of anti-epileptic activity of the sulfamate derivative compounds measured in the above Experimental Example are shown in the following Tables 4 and 5.
row,Structure (SMILES),responders at 9 mg/kg [%]
1,"NS(=O)(=O)OC[C@@H]1OC2(CCCC2)O[C@H]1c1ccccc1 [Example 110, ((2S, 3S)-3-phenyl-1,4-dioxaspiro[4,4]nonan-2-yl)methyl sulfamate]",33.3

# Same assay, conditions: Mus musculus, injection amount 30 mg/kg, 3 mice, read-out: mMES(po) Protection %
row,Structure (SMILES),responders at 30 mg/kg [%]
1,"NS(=O)(=O)OC[C@@H]1OC2(CCCC2)O[C@H]1c1ccccc1Cl [Example 10, ((2S, 3 S)-3-(2-chlorophenyl)-1,4-dioxaspiro[4,4]nonan-2-yl)methyl sulfamate]",66
2,"CC1(C)O[C@@H](COS(N)(=O)=O)[C@H](c2ccccc2)O1 [Example 106, ((4S, 5S)-5-phenyl-2,2-dimethyl-1,3-dioxolan-4-yl)methyl sulfamate]",100

# Same assay, conditions: Mus musculus, injection amount 50 mg/kg, 3 mice, read-out: mMES(po) Protection %
row,Structure (SMILES),responders at 50 mg/kg [%]
1,"CC1O[C@@H](COS(N)(=O)=O)[C@H](c2ccccc2Cl)O1 (stereo partly drawn) [Example 6, ((4S, 5S)-5-(2-chlorophenyl)-2-methyl-1,3-dioxolan-4-yl)methyl sulfamate]",33
2,"CC1(C)O[C@@H](COS(N)(=O)=O)[C@H](c2c(Cl)cccc2Cl)O1 [Example 52, ((4S, 5S)-5-(2,6-dichlorophenyl)-2,2-dimethyl-1,3-dioxolan-4-yl)methyl sulfamate]",100
3,"CCC1(CC)O[C@@H](COS(N)(=O)=O)[C@H](c2ccccc2N)O1 [Example 70, ((4S, 5S)-5-(2-aminophenyl)-2,2-diethyl-1,3-dioxolan-4-yl)methyl sulfamate]",100
4,"Nc1ccccc1[C@@H]1OC(c2ccccc2)O[C@H]1COS(N)(=O)=O (stereo partly drawn) [Example 76, ((4S, 5S)-5-(2-aminophenyl)-2-phenyl-1,3-dioxolan-4-yl)methyl sulfamate]",66
5,"Cc1ccccc1[C@@H]1OC(C)(C)O[C@H]1COS(N)(=O)=O [Example 92, ((4S, 5S)-5-(2-methylphenyl)-2,2-dimethyl-1,3-dioxolan-4-yl)methyl sulfamate]",100
6,"CNc1ccccc1[C@@H]1OC(C)(C)O[C@H]1COS(=O)(=O)NC [Example 104, ((4S, 5S)-5-(2-methylaminophenyl)-2,2-dimethyl-1,3-dioxolan-4-yl)methyl methylsulfamate]",66.6
7,"CCC1(CC)O[C@@H](COS(N)(=O)=O)[C@H](c2ccccc2)O1 [Example 108, ((4S, 5S)-5-phenyl-2,2-diethyl-1,3-dioxolan-4-yl)methyl sulfamate]",100
8,"NS(=O)(=O)OC[C@@H]1OC2(CCCCC2)O[C@H]1c1ccccc1 [Example 112, ((2S, 3S)-3-phenyl-1,4-dioxaspiro[4,5]decan-2-yl)methyl sulfamate]",100
9,"CC1(C)O[C@H](COS(N)(=O)=O)[C@@H](Cc2ccccc2)O1 [Example 122, ((4R, 5R)-5-benzyl-2,2-dimethyl-1,3-dioxolan-4-yl)methyl sulfamate]",100
10,"CCC1(CC)O[C@H](COS(N)(=O)=O)[C@@H](Cc2ccccc2)O1 [Example 124, ((4R, 5R)-5-benzyl-2,2-diethyl-1,3-dioxolan-4-yl)methyl sulfamate]",100
11,"NS(=O)(=O)OC[C@H]1OC2(CCCC2)O[C@@H]1Cc1ccccc1 [Example 126, ((2R, 3R)-3-benzyl-1,4-dioxaspiro[4,4]nonan-2-yl)methyl sulfamate]",100
12,"NS(=O)(=O)OC[C@H]1OC2(CCCCC2)O[C@@H]1Cc1ccccc1 [Example 128, ((2R, 3R)-3-benzyl-1,4-dioxaspiro[4,5]decan-2-yl)methyl sulfamate]",100
13,"CC1(C)O[C@@H](CCOS(N)(=O)=O)[C@H](c2ccccc2)O1 [Example 130, 2-((4S, 5S)-5-phenyl-2,2-dimethyl-1,3-dioxolan-4-yl)ethyl sulfamate]",33.3
14,"NS(=O)(=O)OCC[C@@H]1OC2(CCCC2)O[C@H]1c1ccccc1 [Example 134, 2-((2S, 3S)-3-phenyl-1,4-dioxaspiro[4,4]nonan-2-yl)ethyl sulfamate]",100
15,"NS(=O)(=O)OCC[C@@H]1OC2(CCCCC2)O[C@H]1c1ccccc1 [Example 136, 2-((2S, 3S)-3-phenyl-1,4-dioxaspiro[4,5]decan-2-yl)ethyl sulfamate]",100
16,"CCC1(CC)O[C@H](CCOS(N)(=O)=O)[C@@H](Cc2ccccc2Cl)O1 [Example 140, 2-((4R, 5R)-5-(2-chlorobenzyl)-2,2-diethyl-1,3-dioxolan-4-yl)ethyl sulfamate]",33.3
17,"CC1(C)O[C@H](COS(N)(=O)=O)[C@@H](Cc2ccccc2Cl)O1 [Example 146, ((4R, 5R)-5-(2-chlorobenzyl)-2,2-dimethyl-1,3-dioxolan-4-yl)methyl sulfamate]",66.6
18,"CCC1(CC)O[C@H](COS(N)(=O)=O)[C@@H](Cc2ccccc2Cl)O1 [Example 148, ((4R, 5R)-5-(2-chlorobenzyl)-2,2-diethyl-1,3-dioxolan-4-yl)methyl sulfamate]",33.3
19,"NS(=O)(=O)OC[C@H]1OC2(CCCC2)O[C@@H]1Cc1ccccc1Cl [Example 150, ((2R, 3R)-3-(2-chlorobenzyl)-1,4-dioxaspiro[4,4]nonan-2-yl)methyl sulfamate]",100
20,"NS(=O)(=O)OC[C@H]1OC2(CCCCC2)O[C@@H]1Cc1ccccc1Cl [Example 152, ((2R, 3R)-3-(2-chlorobenzyl)-1,4-dioxaspiro[4,5]decan-2-yl)methyl sulfamate]",66.6

# Same assay, conditions: Mus musculus, injection amount 50 mg/kg, 4 mice, read-out: mMES(po) Protection %
row,Structure (SMILES),responders at 50 mg/kg [%]
1,"CCC1(CC)O[C@@H](COS(N)(=O)=O)[C@H](c2ccccc2Cl)O1 [Example 8, ((4S, 5S)-5-(2-chlorophenyl)-2,2-diethyl-1,3-dioxolan-4-yl)methyl sulfamate]",100
2,"NS(=O)(=O)OC[C@@H]1OC2(CCCCC2)O[C@H]1c1ccccc1Cl [Example 12, ((2S, 3S)-3-(2-chlorophenyl)-1,4-dioxaspiro[4,5]decan-2-yl)methyl sulfamate]",100

# Same assay, conditions: Mus musculus, injection amount 80 mg/kg, 3 mice, read-out: mMES(po) Protection %
row,Structure (SMILES),responders at 80 mg/kg [%]
1,"CC1(C)O[C@H](CCOS(N)(=O)=O)[C@@H](Cc2ccccc2)O1 [Example 114, 2-((4R, 5R)-5-benzyl-2,2-dimethyl-1,3-dioxolan-4-yl)ethyl sulfamate]",33.3
2,"NS(=O)(=O)OCC[C@H]1OC2(CCCC2)O[C@@H]1Cc1ccccc1 [Example 118, 2-((2R, 3R)-3-benzyl-1,4-dioxaspiro[4,4]nonan-2-yl)ethyl sulfamate]",66.6
3,"NS(=O)(=O)OCC[C@H]1OC2(CCCCC2)O[C@@H]1Cc1ccccc1 [Example 120, 2-((2R, 3R)-3-benzyl-1,4-dioxaspiro[4,5]decane-2-yl)ethyl sulfamate]",66.6
4,"CCC1(CC)O[C@@H](CCOS(N)(=O)=O)[C@H](c2ccccc2)O1 [Example 132, 2-((4S, 5S)-5-phenyl-2,2-diethyl-1,3-dioxolan-4-yl)ethyl sulfamate]",33.3
5,"CC1(C)O[C@H](CCOS(N)(=O)=O)[C@@H](Cc2ccccc2Cl)O1 [Example 138, 2-((4R, 5R)-5-(2-chlorobenzyl)-2,2-dimethyl-1,3-dioxolan-4-yl)ethyl sulfamate]",33.3
6,"NS(=O)(=O)OCC[C@H]1OC2(CCCC2)O[C@@H]1Cc1ccccc1Cl [Example 142, 2-((2R, 3R)-3-(2-chlorobenzyl)-1,4-dioxaspiro[4,4]nonan-2-yl)ethyl sulfamate]",33.3

# Same assay, conditions: Mus musculus, injection amount 100 mg/kg, 3 mice, read-out: mMES(po) Protection %
row,Structure (SMILES),responders at 100 mg/kg [%]
1,"NS(=O)(=O)OCC[C@H]1OC2(CCCCC2)O[C@@H]1Cc1ccccc1Cl [Example 144, 2-((2R, 3R)-3-(2-chlorobenzyl)-1,4-dioxaspiro[4,5]decan-2-yl)ethyl sulfamate]",33.3

# Same assay, conditions: Mus musculus, injection amount 150 mg/kg, 3 mice, read-out: mMES(po) Protection %
row,Structure (SMILES),responders at 150 mg/kg [%]
1,"CCC1(CC)O[C@H](CCOS(N)(=O)=O)[C@@H](Cc2ccccc2)O1 [Example 116, 2-((4R, 5R)-5-benzyl-2,2-diethyl-1,3-dioxolan-4-yl)ethyl sulfamate]",33.3

# Same assay, conditions: Mus musculus, mice, at peak time
row,Structure (SMILES),ED50 [mg/kg]
1,"CC1(C)OC(COS(N)(=O)=O)C(c2ccccc2Cl)O1 (mixture of isomers) [Example 3, (5-(2-chlorophenyl)-2,2-dimethyl-1,3-dioxolan-4-yl)methyl sulfamate(SS & RR mixture)]",14
2,"CC1(C)O[C@H](c2ccccc2I)[C@@H](COS(N)(=O)=O)O1 [Example 27, ((4R, 5R)-5-(2-iodophenyl)-2,2-dimethyl-1,3-dioxolan-4-yl)methyl sulfamate]",27.6
3,"CC1(C)O[C@@H](COS(N)(=O)=O)[C@H](c2ccc(Cl)cc2Cl)O1 [Example 40, ((4S, 5S)-5-(2,4-dichlorophenyl)-2,2-dimethyl-1,3-dioxolan-4-yl)methyl sulfamate]",49.2
4,"Nc1ccccc1[C@@H]1OC2(CCCCC2)O[C@H]1COS(N)(=O)=O [Example 74, ((2S, 3S)-3-(2-aminophenyl)-1,4-dioxaspiro[4,5]decan-2-yl)methyl sulfamate]",14.5
